Measured values from ChEMBL document CHEMBL1151211, “Isolation, structure, absolute stereochemistry, and HIV-1 integrase inhibitory activity of integrasone, a novel fungal polyketide” (J Nat Prod, 2004).

Target: Human immunodeficiency virus type 1 integrase (Human immunodeficiency virus 1, UniProt Q7ZJM1)
Assay: Inhibition of HIV1 integrase strand transfer activity

Sequence of Human immunodeficiency virus type 1 integrase (Q7ZJM1 whole entry): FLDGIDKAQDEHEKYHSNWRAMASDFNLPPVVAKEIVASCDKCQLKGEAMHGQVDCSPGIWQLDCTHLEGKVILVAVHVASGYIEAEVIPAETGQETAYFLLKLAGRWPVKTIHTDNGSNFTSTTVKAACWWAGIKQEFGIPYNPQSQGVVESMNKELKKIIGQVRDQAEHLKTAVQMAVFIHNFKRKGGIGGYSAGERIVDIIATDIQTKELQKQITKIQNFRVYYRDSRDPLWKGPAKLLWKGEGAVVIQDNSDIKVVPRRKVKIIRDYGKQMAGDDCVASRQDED

IC50: 41 µM
SMILES: CCCCCC[C@H]1OC(=O)C2=C1[C@@H](O)[C@@H]1O[C@@H]1[C@@H]2O [INTEGRASONE]
